Patent US10273267B2, “Beta-hairpin peptidomimetics as selective elastase inhibitors” (POLYPHOR AG, priority 2013, dated 2019)
*1 amine or outer side, *2 acyl side, *3 side chain or, on linkers, in order; H or OH if unused. Where a SMILES comes first, the peptide text is derived from it. [ ]: non-standard residue; d: D form. X3 = O=C(CC[C@H](Cc1ccc(O)cc1)N[*:1])[*:2]; Oic = O=C(O)[C@@H]1C[C@@H]2CCCC[C@@H]2N1; Gly(octyl) = CCCCCCCC[C@H](N)C(=O)O; N(CH2CH2COOH)Gly = O=C(O)CCNCC(=O)O; Aad = N[C@@H](CCCC(=O)O)C(=O)O; aThr = C[C@H](O)[C@H](N)C(=O)O; hSer = N[C@@H](CCO)C(=O)O; Dab = NCC[C@H](N)C(=O)O; Dap = NC[C@H](N)C(=O)O

Legend:
Type in all cases: biochemical
human proteinase 3 = target: T1, human proteinase 3 (Homo sapiens, UniProt P24158); assay: Inhibition of human proteinase 3 (substrate Boc-Ala-Ala-Nva-SBzl); conditions: for hNE/hPr3 selectivity: ratio of hPr3 IC50 to hNE IC50; for IC50: substrate Boc-Ala-Ala-Nva-SBzl 1 mM, enzyme 10 nM, 37° C., pH7.4, read-out: Human proteinase 3 (hPr3) IC50
T1 construct: purchased Elastin Products Company, USA
T1 sequence (P24158 28-248): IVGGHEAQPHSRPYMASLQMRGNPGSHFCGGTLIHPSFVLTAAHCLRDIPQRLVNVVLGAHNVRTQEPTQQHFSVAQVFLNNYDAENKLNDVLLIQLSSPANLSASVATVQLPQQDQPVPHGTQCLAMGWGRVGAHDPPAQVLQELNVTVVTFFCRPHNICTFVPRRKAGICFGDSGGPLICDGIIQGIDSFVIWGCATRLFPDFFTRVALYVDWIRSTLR
Protocol: 2.4 Inhibition of Human Proteinase 3
The inactivation of human proteinase 3 (Elastin Products Company, USA) by the peptides of the invention using synthetic tripeptidic substrate Boc-Ala-Ala-Nva-SBzl (Elastin Products Company, USA) was determined as follows:
(§1) The above substrate (1 mM), 4,4′-dithiodipyridine (250 μM) and human proteinase 3 (10 nM) were incubated at 37° C. with serial dilutions of the peptides (0.5% DMSO final) in assay buffer (50 mM Tris, pH7.4, 150 mM NaCl, 0.01% Tween20). The reaction process was followed by monitoring the change in absorbance at 340 nm for 30 minutes. Control assays with the same assay set-up as above, but without peptide, ran linearly. The dose-response data were fitted to the 4-parameter Hill equation providing the IC50 value using Graphpad (Prism 5).

[1] = target: T2, porcine pancreatic elastase (Sus scrofa, UniProt P00772); assay: Inhibition of porcine pancreatic elastase (hydrolysis of MeOSuc-AAA-pNA); conditions: for hNE/PPE selectivity: ratio of PPE IC50 to hNE IC50; for IC50: substrate MeOSuc-AAA-pNA 1 mM, enzyme 15 nM, 37° C., pH8, read-out: Porcine pancreatic elastase (PPE) IC50
T2 construct: purchased Sigma, USA
Protocol: 2.3 Inhibition of Porcine Pancreatic Elastase
The ability of the peptides of the invention to inhibit the hydrolysis activity of porcine pancreatic elastase (Sigma, USA) using the synthetic tripeptidic substrate MeOSuc-AAA-pNA (Bachem, Switzerland) was determined as follows:
as §1, with “mM)” for “mM), 4,4′-dithiodipyridine (250 μM)”, “porcine pancreatic elastase (15” for “proteinase 3 (10”, “pH8, 100” for “pH7.4, 150”, “release of pNA” for “reaction process”, “405” for “340”

[2] = target: T3, human neutrophil elastase (Homo sapiens, UniProt P08246); assay: Inhibition of human neutrophil elastase (hydrolysis of MeOSuc-AAPV-pNA); conditions: substrate MeOSuc-AAPV-pNA 0.3 mM, enzyme 10 nM, 37° C., pH 8; read-out: Human neutrophil elastase (hNE) IC50
T3 construct: purchased Serva Electrophoresis, Germany
T3 sequence (P08246 30-267): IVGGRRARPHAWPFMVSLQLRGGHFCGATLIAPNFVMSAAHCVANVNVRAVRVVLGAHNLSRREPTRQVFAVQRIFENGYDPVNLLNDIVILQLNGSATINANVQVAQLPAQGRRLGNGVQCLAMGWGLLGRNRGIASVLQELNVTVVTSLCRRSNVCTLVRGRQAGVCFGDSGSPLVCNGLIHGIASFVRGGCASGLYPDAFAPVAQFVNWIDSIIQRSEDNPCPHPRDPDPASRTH
Protocol: 2.2 Inhibition of Human Neutrophil Elastase
The ability of the peptides of the invention to inhibit the hydrolysis activity of human neutrophil elastase (Serva Electrophoresis, Germany) using the synthetic tetrapeptidic substrate MeOSuc-AAPV-pNA (Bachem, Switzerland) was determined as follows:
as §1, with “(0.3 mM)” for “(1 mM), 4,4′-dithiodipyridine (250 μM)”, “neutrophil elastase” for “proteinase 3”, “(1%” for “(0.5%”, “pH 8, 300” for “pH7.4, 150”, “release of pNA” for “reaction process”, “405” for “340”

T2 sequence (P00772 27-266): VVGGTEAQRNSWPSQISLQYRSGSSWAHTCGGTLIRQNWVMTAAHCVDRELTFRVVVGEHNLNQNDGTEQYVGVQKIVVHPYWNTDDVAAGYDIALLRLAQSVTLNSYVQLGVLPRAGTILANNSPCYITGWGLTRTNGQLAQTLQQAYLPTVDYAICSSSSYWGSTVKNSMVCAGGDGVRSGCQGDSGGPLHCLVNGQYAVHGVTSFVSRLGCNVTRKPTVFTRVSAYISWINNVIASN

Compound | hNE/hPr3 selectivity (human proteinase 3) | IC50 (human proteinase 3) | hNE/PPE selectivity [1] | IC50 [1] | IC50 [2]
CCCCCCCC[C@@H]1NC(=O)[C@@H]2CCCN2C(=O)[C@H]2CCCN2C(=O)[C@H](CCOC)NC(=O)[C@H](CCCCN)NC(=O)[C@H](CCC(N)=O)NC(=O)[C@@H]2CCCN2C(=O)[C@@H]2CCCN2C(=O)[C@H]([C@@H](C)CC)NC(=O)[C@H](CO)NC(=O)[C@H](C)NC(=O)[C@H]([C@@H](C)O)NC(=O)[C@H](CCC(=O)O)NC1=O [Example 1, Cyclo(-OctGly-Glu-Thr-Ala-Ser-Ile-Pro-Pro-Gln-Lys-hSer(Me)-^DPro-Pro-)] (cyclo([Gly(octyl)]ETASIPPQK[hSer](Me)[dP]P)) | 150 | 0.72 µM | 129 | 0.62 µM | 0.0048 µM
CCCCCCCC[C@@H]1NC(=O)[C@@H]2CCCN2C(=O)[C@H]2CCCN2C(=O)[C@H](CN)NC(=O)[C@H](CCCCN)NC(=O)[C@H](CCC(N)=O)NC(=O)[C@@H]2CCCN2C(=O)[C@@H]2CCCN2C(=O)[C@H]([C@@H](C)CC)NC(=O)[C@H](CO)NC(=O)[C@H](C)NC(=O)[C@H]([C@@H](C)O)NC(=O)[C@H](CCC(=O)O)NC1=O [Example 2, Cyclo(-OctGly-Glu-Thr-Ala-Ser-Ile-Pro-Pro-Gln-Lys-Dap-^DPro-Pro-)] (cyclo([Gly(octyl)]ETASIPPQK[Dap][dP]P)) | 644 | 3.54 µM | 218 | 1.2 µM | 0.0055 µM
CCCCCCCC[C@@H]1NC(=O)[C@@H]2CCCN2C(=O)[C@H]2CCCN2C(=O)[C@H]([C@H](C)O)NC(=O)[C@H](CCCCN)NC(=O)[C@H](CCC(N)=O)NC(=O)[C@@H]2CCCN2C(=O)[C@@H]2CCCN2C(=O)[C@H]([C@@H](C)CC)NC(=O)[C@H](CO)NC(=O)[C@H](C)NC(=O)[C@H]([C@@H](C)O)NC(=O)[C@H](CCC(=O)O)NC1=O [Example 3, Cyclo(-OctGly-Glu-Thr-Ala-Ser-Ile-Pro-Pro-Gln-Lys-alloThr-^DPro-Pro-)] (cyclo([Gly(octyl)]ETASIPPQK[aThr][dP]P)) | 149 | 1.01 µM | 209 | 1.42 µM | 0.0068 µM
CCCCCCCC[C@@H]1NC(=O)[C@@H]2CCCN2C(=O)[C@H]2CCCN2C(=O)[C@H](CCO)NC(=O)[C@H](CCCCN)NC(=O)[C@H](CCC(N)=O)NC(=O)[C@@H]2CCCN2C(=O)[C@@H]2CCCN2C(=O)[C@H]([C@@H](C)CC)NC(=O)[C@H](CO)NC(=O)[C@H](C)NC(=O)[C@H]([C@@H](C)O)NC(=O)[C@H](CCC(=O)O)NC1=O [Example 4, Cyclo(-OctGly-Glu-Thr-Ala-Ser-Ile-Pro-Pro-Gln-Lys-hSer-^DPro-Pro-)] (cyclo([Gly(octyl)]ETASIPPQK[hSer][dP]P)) | 119 | 1.02 µM | 157 | 1.35 µM | 0.0086 µM
CCCCCCCC[C@@H]1NC(=O)[C@@H]2CCCN2C(=O)[C@H]2CCCN2C(=O)[C@H](CCCC(N)=O)NC(=O)[C@H](CCCCN)NC(=O)[C@H](CCC(N)=O)NC(=O)[C@@H]2CCCN2C(=O)[C@@H]2CCCN2C(=O)[C@H]([C@@H](C)CC)NC(=O)[C@H](CO)NC(=O)[C@H](C)NC(=O)[C@H]([C@@H](C)O)NC(=O)[C@H](CCC(=O)O)NC1=O [Example 5, Cyclo(-OctGly-Glu-Thr-Ala-Ser-Ile-Pro-Pro-Gln-Lys-hGln-^DPro-Pro-)] (cyclo([Gly(octyl)]ETASIPPQK[Aad](NH2)[dP]P)) | 237 | 2.35 µM | 161 | 1.59 µM | 0.0099 µM
CCCCCCCC[C@@H]1NC(=O)[C@@H]2C[C@@H]3CCCC[C@@H]3N2C(=O)[C@H]2CCCN2C(=O)[C@H]([C@@H](C)O)NC(=O)[C@H](CCCCN)NC(=O)[C@H](CCC(N)=O)NC(=O)[C@@H]2CCCN2C(=O)[C@@H]2CCCN2C(=O)[C@H]([C@@H](C)CC)NC(=O)[C@H](CO)NC(=O)[C@H](C)NC(=O)[C@H]([C@@H](C)O)NC(=O)[C@H](CCC(=O)O)NC1=O [Example 6, Cyclo(-OctGly-Glu-Thr-Ala-Ser-Ile-Pro-Pro-Gln-Lys-Thr-^DPro-Oic-)] (cyclo([Gly(octyl)]ETASIPPQKT[dP][Oic])) | 372 | 4.46 µM | 321 | 3.85 µM | 0.012 µM
CCCCCCCC[C@@H]1NC(=O)[C@@H]2CCCN2C(=O)[C@H]2CCCN2C(=O)[C@H]([C@@H](C)O)NC(=O)[C@H](CCCCN)NC(=O)[C@H](CCC(N)=O)NC(=O)[C@@H]2CCCN2C(=O)CN(CCC(=O)O)C(=O)[C@H]([C@@H](C)CC)NC(=O)[C@H](CO)NC(=O)[C@H](C)NC(=O)[C@H]([C@@H](C)O)NC(=O)[C@H](CCC(=O)O)NC1=O [Example 7, Cyclo(-OctGly-Glu-Thr-Ala-Ser-Ile-Nglu-Pro-Gln-Lys-Thr-^DPro-Pro-)] (cyclo([Gly(octyl)]ETASI[N(CH2CH2COOH)Gly]PQKT[dP]P)) | 305 | 4.06 µM | 295 | 3.92 µM | 0.0133 µM
CCCCCCCC[C@@H]1NC(=O)[C@@H]2CCCN2C(=O)[C@H]2CCCN2C(=O)CC[C@H](Cc2ccc(O)cc2)NC(=O)[C@H](CCCCN)NC(=O)[C@H](CCC(N)=O)NC(=O)[C@@H]2CCCN2C(=O)[C@@H]2CCCN2C(=O)[C@H]([C@@H](C)CC)NC(=O)[C@H](CO)NC(=O)[C@H](C)NC(=O)[C@H]([C@@H](C)O)NC(=O)[C@H](CCC(=O)O)NC1=O [Example 8, Cyclo(-OctGly-Glu-Thr-Ala-Ser-Ile-Pro-Pro-Gln-Lys-[H-γ^4-DiHTyr-OH]-^DPro-Pro-)] (cyclo([Gly(octyl)]ETASIPPQK[X3][dP]P)) | 168 | 3.33 µM | 91 | 1.81 µM | 0.0198 µM
CC[C@H](C)[C@@H]1NC(=O)[C@H](CO)NC(=O)[C@H](C)NC(=O)[C@H]([C@@H](C)O)NC(=O)[C@H](CCC(=O)O)NC(=O)[C@H](CCNC(=O)[C@@H](N)Cc2ccccc2)NC(=O)[C@@H]2CCCN2C(=O)[C@H]2CCCN2C(=O)[C@H](Cc2ccc(O)cc2)NC(=O)[C@H](CCCCN)NC(=O)[C@H](CCC(N)=O)NC(=O)[C@@H]2CCCN2C(=O)[C@@H]2CCCN2C1=O [Example 9, Cyclo(-Dab(Phe)-Glu-Thr-Ala-Ser-Ile-Pro-Pro-Gln-Lys-Tyr-^DPro-Pro-)] (cyclo([Dab](Phe)ETASIPPQKY[dP]P)) | 711 | 12.3 µM | 215 | 3.72 µM | 0.0173 µM
CCCCCCCC[C@@H]1NC(=O)[C@@H]2CCCN2C(=O)[C@H]2CCCN2C(=O)[C@H]([C@@H](C)O)NC(=O)[C@H](CCCCN)NC(=O)[C@H](CCC(N)=O)NC(=O)[C@@H]2C[C@@H]3CCCC[C@@H]3N2C(=O)[C@@H]2CCCN2C(=O)[C@H]([C@@H](C)CC)NC(=O)[C@H](CO)NC(=O)[C@H](C)NC(=O)[C@H]([C@@H](C)O)NC(=O)[C@H](CCC(=O)O)NC1=O [Example 10, Cyclo(-OctGly-Glu-Thr-Ala-Ser-Ile-Pro-Oic-GI n-Lys-Thr-^DPro-Pro-)] (cyclo([Gly(octyl)]ETASIP[Oic]QKT[dP]P)) | >13699 | > 100 µM | 4959 | 36.2 µM | 0.0073 µM
